In patent US20220119375A1, “3-ARYLOXY-3-ARYL-PROPYLAMINE COMPOUND AND USES THEREOF” (Zhangzhou Pien Tze Huang Pharmaceutical Co., Ltd., priority 2018, published 2022):
Like-named read-outs stand apart in the source and are kept apart here.

How the values were obtained:
TRPA1 = target: T1, TRPA1 (Mus musculus, UniProt Q8BLA8); test: IonWorks Barracuda (IWB) automated patch clamp detection of TRPA1 inhibitory activity; format: cell-based, mouse (mTRPA1); settings: automated patch clamp (IWB)
T1 construct: expressed in transfected cells; host or cells: HEK293
T1 sequence (Q8BLA8 whole entry): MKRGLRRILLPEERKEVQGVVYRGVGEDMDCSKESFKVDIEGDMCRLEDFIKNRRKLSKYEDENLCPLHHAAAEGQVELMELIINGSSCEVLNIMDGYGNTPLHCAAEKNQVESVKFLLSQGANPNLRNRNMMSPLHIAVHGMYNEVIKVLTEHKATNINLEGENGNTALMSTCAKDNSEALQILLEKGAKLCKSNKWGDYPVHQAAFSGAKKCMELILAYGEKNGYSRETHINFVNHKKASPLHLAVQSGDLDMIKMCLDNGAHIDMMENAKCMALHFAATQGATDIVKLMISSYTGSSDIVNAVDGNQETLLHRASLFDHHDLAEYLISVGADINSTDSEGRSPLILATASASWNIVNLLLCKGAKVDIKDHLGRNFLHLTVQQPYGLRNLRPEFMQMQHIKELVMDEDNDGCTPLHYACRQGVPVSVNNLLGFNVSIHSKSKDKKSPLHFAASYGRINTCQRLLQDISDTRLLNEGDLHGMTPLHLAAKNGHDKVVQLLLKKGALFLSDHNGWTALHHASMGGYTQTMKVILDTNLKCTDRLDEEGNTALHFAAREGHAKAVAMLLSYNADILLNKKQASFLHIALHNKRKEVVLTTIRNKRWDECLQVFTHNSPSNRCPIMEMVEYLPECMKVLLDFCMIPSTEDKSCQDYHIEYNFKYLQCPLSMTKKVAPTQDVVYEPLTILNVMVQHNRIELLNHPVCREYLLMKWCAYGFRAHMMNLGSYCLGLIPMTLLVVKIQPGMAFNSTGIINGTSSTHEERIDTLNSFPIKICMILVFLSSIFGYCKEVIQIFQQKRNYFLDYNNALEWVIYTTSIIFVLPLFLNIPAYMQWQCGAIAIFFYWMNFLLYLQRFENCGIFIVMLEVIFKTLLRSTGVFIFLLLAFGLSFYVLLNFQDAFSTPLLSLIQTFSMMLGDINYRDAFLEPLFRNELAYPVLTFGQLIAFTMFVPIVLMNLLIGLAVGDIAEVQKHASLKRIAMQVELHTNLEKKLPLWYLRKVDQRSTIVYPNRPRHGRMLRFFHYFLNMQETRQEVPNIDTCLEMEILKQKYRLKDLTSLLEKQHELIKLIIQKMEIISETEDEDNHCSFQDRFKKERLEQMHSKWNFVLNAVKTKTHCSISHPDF
Description: The inhibitory activity of some compounds in the Examples of present invention on transient receptor potential channel protein TRPA1 was tested in this example. The compound of formula A (WO2010075353) was used as a positive control compound: […]
IonWorks Barracuda (IWB) automated patch clamp detection was used as test method: HEK293 cells stably expressing TRPA1 were placed in DMEM medium containing 15 μg/mL Blasticidin S HCl, 200 μg/mL Hygromycin B and 10% FBS in the T175 culture flask, and cultured in 37° C., 5% CO2 incubator. When the cell density reached about 80%, the culture medium was removed, rinsed with phosphate buffered saline (PBS) without calcium and magnesium. 3 mL of Trypsin was added to digest for 2 min, 7 mL of culture medium was added to terminate the digestion. The cells were collected to 15 mL centrifuge tube and centrifuged at 800 rpm for 3 min. After the supernatant was removed, the cells were added to appropriate volume of extracellular fluid for re-suspending, and the cell density was controlled at 2-3×10^6/mL for IWB experiment. Extracellular fluid formulation (in mM): 140 NaCl, 5 KCl, 1 MgCl2, 10 HEPES, 0.5 EGTA, 10 Glucose (pH 7.4); intracellular fluid formulation (in mM): 140 CsCl, 10 HEPES, 5 EGTA, 0.1 CaCl2, 1 MgCl2 (pH 7.2). 28 mg/mL of amphotericin B was freshly prepared with DMSO on the day of experiment, and then final concentration of 0.1 mg/mL was prepared with intracellular fluid.
Population patch clamp (PPC) plate was used in IWB experiment. The entire detection process was automatically carried out by the instrument. Extracellular fluid was added into 384 wells of PPC plate, and 6 µL of the intracellular fluid was added into plenum (under the PPC plate), 6 µL of cell fluid was added for sealing test, and finally the intracellular fluid in plenum was replaced with amphotericin B-containing intracellular fluid to establish a whole-cell recording mode after perforating sealed cells. The sampling frequency for recording TPRA1 current was 10 kHz, the cells were clamped at 0 mV, the voltage stimulation command (channel protocol) was a ramp voltage from −100 mV to +100 mV for 300 ms. This voltage stimulation was applied every 10 s, mTRPA1 current was induced by 300 µM AITC.
Data recording and current amplitude measurement export were carried out by IWB software (version 2.5.3, Molecular Devices Corporation, Union City, Calif.). No statistics was recorded for holes with sealing impedance lower than 20 MΩ. The original current data was corrected by software for leakage reduction. TRPA1 current amplitude was measured at +100 mV. […] If IC50 value of HC030031 exceeded 3 times the average IC50 value previously obtained on each plate, it would be re-tested. The dose-effect curve of compounds and IC50 were fitted and calculated by GraphPad Prism 5.02 (GraphPad Software, San Diego, Calif.).

[1] = system: C57 mice, hot plate pain model; test: mice hot plate pain model; format: in vivo, mouse; settings: 10 mg/kg intraperitoneal, hot plate 55±0.1° C., within 60 minutes
Description: SPF-grade C57 male mice were placed at hot plate with constant 55±0.1° C. […] If the pain reaction of mice was observed, the mice were taken out immediately to prevent mice from scalding. […] The test compounds were freshly prepared on the day of administration. 0.9% NaCl physiological saline solution was prepared as solvent for later use. Appropriate amount of test compounds were added into required volume of physiological saline and fully suspended, and the concentration of the drug compound in preparation was 1 mg/ml. The standard volume of administration to mice was 10 ml/kg (or 0.1 ml/10 g). […] The administration volume was 10 ml/kg. […] Hot plate observation index: the reaction time of mice on the hot plate at 55±0.1° C. (Time latency). Measurement and recording were conducted at 3 h before administration and 15 min, 30 min, and 60 min after administration. Maximum possible effect (MPE) % was used to evaluate analgesic effect of each compound, i.e., MPE %=[(Post drug latency-baseline latency)/(30-baseline latency)]×100. MPE % at different time points was recorded. The higher the value of MPE % was, the stronger the analgesic effect of the compound was.

SH—SY5Y cells = test: Cytotoxicity test (CCK-8), neurotoxicity; format: cell-based; settings: Homo sapiens, 72 h
Description: HepG-2 and SH—SY5Y cells were placed in 10 cm dish and cultured at 37° C., 5% CO2 in a cell incubator. Trypsin was used to digest and resuspend cells and cells were counted. The cells were transferred to 96-well plate with 8000 cells in a well (100 μl/well). A serial of gradient concentration dilutions of compound with 2-fold dilution were prepared, and the system was 100 μL/well. The supernatant of cell culture system in the 96-well plate was removed on the first day, and fresh-prepared drug concentration system was add into culture plate wells (duplicate wells were set). The cells were cultured at 37° C., 5% CO2 in a cell incubator for 72 h. After the cell culture was completed, the supernatant of cell culture system was removed from 96-well plate, 100 μl of detection solution containing 10% CCK-8 medium was added into each well, and the cells were cultured at 37° C., 5% CO2 in a cell incubator for 1 h. Microplate reader was used to measure the absorbance at 450 nm. Data was processed to calculate cytotoxicity, and IC50 was calculated by GraphPad Prism. […]
A (Dosing): the absorbance of wells containing cells, CCK-8 solution and drug solution.
A (control): the absorbance of wells containing medium and CCK-8 solution and without cells.
A (0 Dosing): the absorbance of wells containing cells and CCK-8 solution but without drug solution.

## CNCC[C@H](Oc1cccc2ccoc12)c1cccs1 [Compound IC-1, (S)-3-(benzofuran-7-yloxy)-N-methyl-3-(thiophen-2-yl)propyl-1-amine]
TRPA1; HEK293 cells stably expressing TRPA1, AITC-induced current at +100 mV, read-out: IC50 (μM) on TRPA1 in the patch clamp detection test
  IC50: 1 to 5 µM
[1]
  analgesic effect (MPE %) on hot plate: stronger than those of gabapentin and duloxetine

## CNCC[C@H](Oc1cccc2ccccc12)c1cccs1 [Duloxetine (S configuration), Duloxetine]
TRPA1; read-out: IC50 on TRPA1
  IC50: 24.7 µM
SH—SY5Y cells
  IC50: 28 µM
